Data: a melting point compilation (Tetko et al.; mined from patent text by program, amines drawn as free bases though some values may be those of a salt)

Structure (SMILES)	melting point [°C]
Cn1nc(O[C@@H]2c3cc(C#N)ccc3OC(CF)(CF)[C@H]2O)ccc1=O (relative stereo)	215 to 217
CS(=O)c1ccc(-c2nn(Cc3ccc(Cl)cc3Cl)c(=O)cc2-c2ccc(Cl)cc2)cc1 (stereo not given)	236 to 237
c1ccc2c(c1)SSSSS2	56 to 58
ClC(Cl)=CCOc1cc(Cl)c(OCCCCOc2ccc(Cl)cc2)c(Cl)c1	54.5
COc1ccc2ccc(N3C(=O)c4ccccc4C3CC(=O)CCc3ccccc3)nc2n1 (stereo not given)	180
O=C1NCCc2c(OCCc3ccccc3)cccc21	149 to 150
OC1CCN(c2ccncc2)CC1	155 to 156
CN(c1ccc(CCNCC(O)COc2ccc(OCc3ccccc3)cc2)cc1)C1SC(=O)NC1=O (stereo not given)	51 to 53
CC(C)(C)c1ccc(NC(Nc2ccc(C(C)(C)C)cc2)Nc2ccc(C(C)(C)C)cc2)cc1	157 to 158
CCOC(=O)C(C#N)=NOC(=O)Oc1cc(Cl)c(Cl)cc1Cl	101 to 103
COc1ccc(C2c3ccccc3C(c3ccc(OC)cc3)C2C(=O)O)cc1 (stereo not given)	192 to 193
O=C(NCCCCN1CCC(c2ccc3c(c2OCc2ccccc2)CCCC3)CC1)c1ccc(-c2ccc(C(F)(F)F)cc2)cc1	169 to 170
CC(C)n1nc(-c2sc(NC(=O)CCN3CCOCC3)nc2-c2ccccc2)ccc1=O	197 to 198
CCCCCCCCCCCCCC(=O)O[C@H](CCCCCCCCCCC)CC(=O)O	28 to 29
CCNCC1CCN(c2cc3c(cc2Cl)c(=O)c(C(=O)O)cn3C2CC2)C1 (stereo not given)	> 310
FC(F)(F)C(F)(F)C1(CNC2=NCCO2)CCCCC1	115 to 118
CCSc1nc2c(C)sc(C(=O)O)c2n1Cc1ccc(-c2ccccc2-c2nc(=O)[nH]o2)cc1	144 to 147
CC1(C)Oc2cc(Br)sc2C(N2CCCC2=O)C1O (stereo not given)	162 to 165
O=C(Nc1ccccc1NS(=O)(=O)c1ccc(Cl)cc1)c1ccccc1	191 to 192
Cc1nn(-c2cc(Oc3ccc(C(=O)O)cc3)c(Cl)cc2F)c(=O)n1C(F)F	184 to 185
COc1ccc(C2=C(c3ccc(O)cc3)CCCc3cc(OCc4ccccc4)ccc32)cc1	173 to 175
CCCCNCCC(=O)Nc1ccc2c(c1)C(=O)c1cc(NC(=O)CCNCCCC)ccc1C2=O	168
O=C(O[C@H]1Cc2c(O)cc(O)cc2O[C@@H]1c1ccc(O)cc1)c1cc(O)c(O)c(O)c1	96 to 98

Structure (SMILES)	melting point [°C]
CNc1cc2c(cc1OC)OCO2	66
CCc1nc(C2CC2)c(C(=O)O)n1Cc1ccc2oc(-c3ccccc3C(=O)NS(=O)(=O)c3ccccc3)c(Br)c2c1	176 to 178
COC(=O)c1ccc(C(Cc2cc(C)ccc2N2CCCCC2)C(N)=O)cc1 (stereo not given)	124 to 126
CCOC(=O)c1c(OC(=O)C=C(C)C)c(CC)c(C)[nH]c1=O	166
Cc1cc(NC(C)(C)C)nc(NC(C)(C)C)c1C#N	134 to 138
COc1ccc(Br)cc1-c1nc(N)nc(N)n1	294 to 297
CC(=O)OCC1=C(C(=O)OC(c2ccccc2)c2ccccc2)N2C(=O)C(NC(=O)Cc3csc(-c4c(O)cccc4O)n3)C2SC1 (stereo not given)	144 to 146
COc1ccc(CNc2nnc(Cl)c3ccc(C#N)cc23)cc1Cl	213 to 214
Cc1ccc(COc2ccc(C(=O)NC[C@@H](C(=O)NO)N3CCCCC3)cc2)c2ccccc12	123
Cc1c(-c2ccccc2)n(-c2ccccc2Cl)c(-c2ccccc2)cc1=O	228 to 231
CCCC(C)(c1ccc(Oc2ccc([N+](=O)[O-])cc2)cc1)c1ccc(Oc2ccc([N+](=O)[O-])cc2)cc1	151 to 152
C=CCc1c(OCC=Cc2ccccc2)ccc2c1CCC(=O)N2CC=Cc1ccccc1	66 to 68
N#Cc1ccccc1COc1cccc(Cl)c1	56
CNCc1ccc(-c2cc3ncnc(Nc4ccc5[nH]ccc5c4)c3s2)cc1	140 to 147
N#Cc1cc(N2C(=O)CC(C(F)(F)F)CC2=O)c(F)cc1Cl	210 to 212
O=C1CC(c2cccc(-n3ccnc3)c2)=Nc2ccc(-c3ccc(F)cc3O)cc2N1	220
Cc1cc(C(C)C)c(C=O)[nH]1	90 to 93
Cn1cc(-c2cccc(C(F)(F)F)c2)c(=O)c(-c2cccc(S(C)(=O)=O)c2)c1	180 to 183
CCOC(OCC)C(N)=O	47 to 51
N#CCCN1CCCCC1=Nc1ccccc1N1CCOCC1	148
CC(=O)N1CCc2c(c3ccc(-n4ccc(OCc5ccccc5)cc4=O)cc3n2C)C1	225 to 230
CCOc1cc(-c2ccc(-c3ccc(N=Nc4ccccn4)c(OCC)c3)o2)ccc1N=Nc1ccccn1	205 to 210
O=C(Nc1cccc2c(=O)cc[nH]c12)c1c(Cl)cccc1Cl	342

Structure (SMILES)	melting point [°C]
COc1cc(CCN2CCc3cc(O)ccc3C2)cc(OC)c1OC	180 to 186
O=CN(O)C(CO)CS(=O)(=O)c1ccccc1Sc1ccc(Cl)cc1 (stereo not given)	148 to 150
C#Cc1cccc(OCc2ccc(OC)cc2)c1	92 to 95
CC(C)CC(NC(=O)Cc1ccc(NC(=O)Nc2ccccc2F)cc1)c1ncc(CCC(=O)O)s1 (stereo not given)	83 to 85
O=C(CCC(=O)N[C@@H]1CCc2ccccc21)N[C@@H]1CCc2ccccc21	266 to 269
O=C(NC1CCN(CCC(O)C(=O)C(O)CCN2CCC(NC(=O)c3ccccc3)CC2)CC1)c1ccccc1 (stereo not given)	154 to 155
CC(Cc1nc(-c2ccccc2)nc2ccccc12)C(=O)NC(CO)c1ccccc1 (stereo not given)	199
Cc1cc(SCc2ccc(OC3CCc4cc(Cl)ccc43)cc2)ccc1OCC(=O)O (stereo not given)	130 to 131
CS(=O)(=O)c1ccc(N2CC=C(N3CCCC3)CC2)cc1	141 to 143
Cc1cc(-c2ccc(-c3ccc(F)cc3)cc2)n[nH]c1=O	247 to 248
CC=CCN(Cc1cc(C)ccc1C)c1ncnc2c1ncn2C1OC(CO)C(O)C1O (stereo not given)	125 to 127
CC(=O)NC1CCC2=C(CC1)C(=O)C(=CC(=O)O)C=C2 (stereo not given)	240 to 243
CCC1c2cccn2-c2ccc(F)cc2N1S(=O)(=O)c1ccc(O)cc1 (stereo not given)	150 to 152
Nc1ccc(F)c(-c2ccncc2)n1	189 to 190
O=c1[nH]c2ccc3ccccc3c2n(CCc2ccccc2)c1=O	268
Clc1ccc(CC[C@H]2CN(Cc3ccccc3)CCN2Cc2ccccc2)cc1	87 to 90
COc1c(OC)c(OC)c2c(=O)cc(-c3ccc(O)cc3)oc2c1OC	187 to 188
CCC[C@H]1CC[C@H](c2ncc(C#N)cn2)CC1	74
Cn1c(C(F)(F)F)cc(=O)n(-c2ccc([N+](=O)[O-])cc2F)c1=O	135 to 136
Cc1[nH]c(=O)c2c(N)c([N+](=O)[O-])ccc2c1C	> 300
Cc1cc(O)c(C)c(O)c1C#N	162 to 163

Further lines, results first:

melting point [°C]	Structure (SMILES)
192 to 193	CNC(=O)N(C)c1ccc(Cl)c(COc2cccn3c(Br)c(C)nc23)c1Cl
46 to 48	CCN(CC)c1ccc(C(=O)c2ccccc2)c(O)c1
114 to 117	CC(C)(C)OC(=O)N1c2ccccc2CC1c1ccccc1N (stereo not given)
223 to 224	CS(=O)(=O)Nc1cc(NS(C)(=O)=O)cc([N+](=O)[O-])c1
169	O=C(c1ccccc1)c1ccc([N+](=O)[O-])c(C(=O)O)c1
246 to 248	N#CN=C(N)NCc1ccc2c(c1)Nc1nccnc1S2
45 to 47	CCOC(=O)C(C(=O)OCC)[C@H](C[N+](=O)[O-])c1ccccc1
124 to 126	CN(C)c1nc(N)c(-c2cc(Cl)cc(Cl)c2Cl)c(C(F)(F)F)n1
154 to 156	Cc1[nH]nc(CN2CCN(Cc3c[nH]c4ncccc34)CC2)c1-c1ccccc1
206 to 208	CC(=O)c1ccc(O)c(CS(C)(=O)=O)c1
220	O=c1[nH]c2cccc3c2n1CCC(NCCO)C3O (stereo not given)
160 to 163	CC(=O)C1=C(CS(=O)c2ccccc2)CC2C3CCC4=CC(=O)CCC4(C)C3=CCC12C (stereo not given)
183 to 185	Cn1c(COc2ccc(CC3SC(=O)NC3=O)cc2)cc2cccnc21 (stereo not given)
200 to 208	CN(C)C(=O)c1cccnc1S
143 to 145	O=C(O)COc1cc(F)ccc1C(=O)NCc1ccc(Br)cc1F
210 to 215	O=c1[nH]nc(-c2cccc(C(F)(F)F)c2)c2ncccc12
230 to 232	Cc1cccc([N+](=O)[O-])c1C(=O)Nc1nnn[nH]1

melting point [°C]	Structure (SMILES)
194 to 198	Nc1ncnc2c1c(-c1ccccc1)cn2-c1cccc(C(=O)NCCO)c1
216 to 218	CN(C)c1ccc(CC(=O)Nc2cc(CC3SC(=O)NC3=O)ccc2O)cc1 (stereo not given)
104 to 105	CCC1(CCCCCl)C(=O)Nc2ccccc21 (stereo not given)
202 to 204	Cc1cc2c(=O)c(Cc3cccnc3)cn3c4ccc(Br)cc4c(c1)c23
302 to 303	O=[N+]([O-])c1cnn2c(-c3cccnc3)ccnc12
114	O=C(CCBr)NCC(=O)c1ccccc1
165 to 168	Cc1ccc(C(=O)Nc2ccccc2C(CCC(=O)O)=NO)cc1
122 to 124	CCOC(=O)c1cnc(CCOC)nc1NCc1ccc(-c2ccccc2-c2nnn[nH]2)cc1
95 to 110	CC(C)(C(=O)O)C1(c2ccc(Cl)cc2)CCC1
118 to 119	C=Cc1c(NC(=O)c2cn(C)nc2C(F)(F)F)cccc1C(C)(C)C
156 to 158	CSc1ccc(C2=C(Cl)C(=O)OC2)cc1
166 to 169	Oc1ccccc1Nc1nccc(-c2cccnc2)n1
125	Cc1ccc(S(=O)(=O)n2ccc3c(Cl)c(F)cnc32)cc1
131 to 133	CCN(CC)C(=O)CCCN(C(=O)Nc1cc(OC)cc(C(C)(C)C)c1O)c1ccccc1
> 300	O=c1c2cnc(Cl)cc2[nH]c2ccnn12
51 to 54	Fc1cccc(Cc2cncnc2N2CCCC2)c1
